From patent US20140248361A1, “HERBAL EXTRACT COMPOSITION AND A PROCESS THEREOF” (PRASAN SOLUTIONS (INDIA) PVT LTD, priority 2012, published 2014)

Columns and labels:
[1] = Oil stability index (Rancimat) of almond oil; details: for Induction Time: in h
Protocol: (§1) The oil stability index is determined using the Metrohm's Rancimat (Metrohm 743 Rancimat).
4.0 g of almond oil is weighed into the reaction vessel. The reaction vessel filled with oil is placed in a heating block. The temperature of the block is maintained at 100° C., 120° C. and 140° C., respectively. The oil is heated at the said temperatures, followed by passing air at a flow rate of 20 L/h. […] These compounds are conveyed by the air flow into measurement vessel containing distilled water where conductivity is being checked continuously by sensor.
The above experiment is repeated by adding 200 ppm of BHA (sample-B), 200 ppm of BHT (sample-B1), 500 ppm of alpha tocopherol (sample-B2) and PRESOL at 200 ppm, 500 ppm and 1000 ppm, respectively to almond oil. From the above experiment, oxidative stability index of untreated oil (control) and treated oil is calculated and the below table illustrates the induction time and the obtained oxidative stability.

[2] = Oil stability index (Rancimat) of apricot oil; details: for Induction Time at 200 ppm: in h
Protocol: As used herein, ‘Oil Stability Index (OSI)’ is an American Oil Chemists Society (AOCS) approved method that determines the relative resistance of fat and oil samples to oxidation, which is defined by the following equation—
as §1
4.0 g of apricot oil is weighed into the reaction vessel. The reaction vessel filled with oil is placed in a heating block. The temperature of the block is maintained at 100° C., 120° C. and 140° C., respectively. The oil is heated at the said temperatures, followed by passing air at a flow rate of 20 L/h. Flowing of air through the oil produces peroxides during primary oxidation and organic acids having low molecular weight, aldehydes and ketones with typical rancid odor during the secondary oxidation phase. These compounds are conveyed by the air flow into measurement vessel containing distilled water where conductivity is being checked continuously by sensor.
The above experiment is repeated by adding 200 ppm of BHA (sample-B), 200 ppm of BHT (sample-B1), 500 ppm of alpha tocopherol (sample-B2) and PRESOL at 200 ppm, 500 ppm and 1000 ppm, respectively to apricot oil.

[3] = Peroxide value of fish oil at 10° C.
Protocol: The shelf life is calculated using Rancimat shelf life calculator. The shelf life of oil is studied by carrying out chemical analysis, which include studying peroxide value (represents extent of primary oxidation), Para-anisidine value (represents extent of secondary oxidation) and totox value (reflects total oxidation of oil). […] […] The untreated oil is the control sample without any antioxidant.

[4] = Oil stability index (Rancimat) of fish oil; details: 200 ppm; for Induction Time: in h
Protocol: 4.0 g of fish oil is weighed into the reaction vessel. […] The temperature of the block is maintained at 60° C., 70° C. and 80° C., respectively.

Cc1cc(C(C)(C)C)c(O)c(C(C)(C)C)c1 [Sample B1, butylated hydroxyl toluene]
Induction Time ([1]; 100° C., 200 ppm): 24.98 | Induction Time ([1]; 120° C., 200 ppm): 5.89 | Induction Time ([1]; 140° C., 200 ppm): 1.48 | Induction Time at 200 ppm ([2]; 100° C., 200 ppm): 26.96 | Induction Time at 200 ppm ([2]; 120° C., 200 ppm): 5.93 | Induction Time at 200 ppm ([2]; 140° C., 200 ppm): 1.49

Cc1c(C)c2c(c(C)c1O)CC[C@@](C)(CCC[C@H](C)CCC[C@H](C)CCCC(C)C)O2 [Sample B2, alpha tocopherol]
days after which peroxide value crosses the threshold limit of 8 meq/kg ([3]; 200 ppm): 21 days | Peroxide value ([3]; day 0, 200 ppm): 1.74 | Peroxide value ([3]; day 3, 200 ppm): 2.13 | Peroxide value ([3]; day 6, 200 ppm): 3.33 | Peroxide value ([3]; day 9, 200 ppm): 4.71 | Peroxide value ([3]; day 12, 200 ppm): 5.41 | Peroxide value ([3]; day 15, 200 ppm): 6.82 | Peroxide value ([3]; day 18, 200 ppm): 7.84 | Peroxide value ([3]; day 21, 200 ppm): 9.02 | Peroxide value ([3]; day 24, 200 ppm): 10.32 | Peroxide value ([3]; day 27, 200 ppm): 12.02 | Peroxide value ([3]; day 30, 200 ppm): 13.01 | Peroxide value ([3]; day 33, 200 ppm): 15.44 | Peroxide value ([3]; day 36, 200 ppm): 17.16 | Peroxide value ([3]; day 39, 200 ppm): 18.94 | Peroxide value ([3]; day 42, 200 ppm): 20.86 | Peroxide value ([3]; day 45, 200 ppm): 25.09 | Peroxide value ([3]; day 48, 200 ppm): 28.71 | Peroxide value ([3]; day 51, 200 ppm): 33.89 | Peroxide value ([3]; day 54, 200 ppm): 39.01 | Peroxide value ([3]; day 57, 200 ppm): 44.14 | Peroxide value ([3]; day 60, 200 ppm): 49.22 | Peroxide value ([3]; day 63, 200 ppm): 50.06 | Peroxide value ([3]; day 66, 200 ppm): 51.22 | Peroxide value ([3]; day 69, 200 ppm): 50.85 | Peroxide value ([3]; day 72, 200 ppm): 50.13 | Peroxide value ([3]; day 75, 200 ppm): 49.72 | Oxidative Stability Index (OSI) ([1]; 100° C., 500 ppm): 1.11 | Induction Time ([1]; 100° C., 500 ppm): 24.51 | Oxidative Stability Index (OSI) ([1]; 120° C., 500 ppm): 1.13 | Induction Time ([1]; 120° C., 500 ppm): 5.73 | Oxidative Stability Index (OSI) ([1]; 140° C., 500 ppm): 1.04 | Induction Time ([1]; 140° C., 500 ppm): 1.43 | Oxidative Stability Index (OSI) ([2]; 100° C., 500 ppm): 0.82 | Induction Time at 200 ppm ([2]; 100° C., 500 ppm): 22.06 | Oxidative Stability Index (OSI) ([2]; 120° C., 500 ppm): 0.86 | Induction Time at 200 ppm ([2]; 120° C., 500 ppm): 5.06 | Oxidative Stability Index (OSI) ([2]; 140° C., 500 ppm): 0.89 | Induction Time at 200 ppm ([2]; 140° C., 500 ppm): 1.32 | Oxidative Stability Index (OSI) ([4]; 60° C.): 2.81 | Induction Time ([4]; 60° C.): 27.68 | Oxidative Stability Index (OSI) ([4]; 70° C.): 2.76 | Induction Time ([4]; 70° C.): 13.74 | Oxidative Stability Index (OSI) ([4]; 80° C.): 2.76 | Induction Time ([4]; 80° C.): 6.78
